From article PMC7541553 (Molecular cancer therapeutics, 2020)

Design: species or system BALB/C mice
Conditions: mouse, in vivo, iv

Substance: Arg-Gly-Asp [RGD]
- t1/2 in the circulation: 33.4 ± 0.9 min
